Experimental data published in ChEMBL document CHEMBL1201862, “PubChem BioAssay data set” (2004).
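Five compound concentrations were applied to cells in 96-well plates for 48 hours; endpoints were derived by simple linear interpolation of the resulting dose-response curve. GI50 marks 50% less growth.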 Calls of active or inactive are those of the source. Cut-off read from the data, not from the text of the source: active = GI50 up to about 1.1 µM and inactive = higher.

Tests used:
Experiment in all cases: DTP human tumour cell line panel, 48 h
[1] = system: COLO 205
[2] = system: OVCAR-4
[3] = system: SF-295
[4] = system: MOLT-4
[5] = system: SNB-19
[6] = system: MDA-MB-231
[7] = system: NCI-H522
[8] = system: EKVX
[9] = system: NCI-H23
[10] = system: RXF 393
[11] = system: U-251
[12] = system: UO-31
[13] = system: NCI-H460
[14] = system: TK-10
[15] = system: SF-268
[16] = system: A549
[17] = system: K562
[18] = system: IGROV-1
[19] = system: OVCAR-5
[20] = system: MDA-N
[21] = system: MDA-MB-435
[22] = system: HT-29
[23] = system: RPMI-8226
[24] = system: BT-549
[25] = system: HL-60
[26] = system: CCRF-CEM
[27] = system: SK-MEL-28
[28] = system: 786-0
[29] = system: OVCAR-3
[30] = system: HCC 2998
[31] = system: OVCAR-8
[32] = system: HCT-116
[33] = system: T47D
[34] = system: HOP-62
[35] = system: Malme-3M
[36] = system: SNB-75
[37] = system: HOP-92
[38] = system: LOX IMVI
[39] = system: HCT-15
[40] = system: SK-MEL-2
[41] = system: SW-620
[42] = system: PC-3
[43] = system: SK-MEL-5
[44] = system: CAKI-1
[45] = system: SF-539
[46] = system: SR
[47] = system: KM12
[48] = system: NCI-H226
[49] = system: NCI/ADR-RES
[50] = system: UACC-257
[51] = system: M14
[52] = system: Hs-578T
[53] = system: SN12C
[54] = system: UACC-62
[55] = system: A498
[56] = system: ACHN
[57] = system: DU-145
[58] = system: MCF7
[59] = system: SK-OV-3

In the case of `CCOC(=O)c1ccc(/N=C2\SC(=S)N(c3ccc(F)cc3)\C2=N/c2ccc(C(=O)OCC)cc2)cc1`, the GI50 [1] is reported as 19300 nM (inactive), the GI50 [2] is reported as 12100 nM (inactive) and the GI50 [3] is reported as 48300 nM (inactive). For the same compound, the GI50 [4] was 3680 nM (inactive), the GI50 [5] was 65200 nM (inactive) and the GI50 [6] was 7800 nM (inactive). For the same compound, the GI50 [7] was 5970 nM (inactive), the GI50 [8] was 22100 nM (inactive) and the GI50 [9] was 17800 nM (inactive). For the same compound, the GI50 [10] was 9680 nM (inactive), the GI50 [11] was 20600 nM (inactive) and the GI50 [12] was 10800 nM (inactive). The GI50 [13] was 51900 nM (inactive), the GI50 [14] was 18900 nM (inactive) and the GI50 [15] was 7400 nM (inactive). For the same compound, the GI50 [16] was 41000 nM (inactive), the GI50 [17] was 12300 nM (inactive) and the GI50 [18] was 14400 nM (inactive). For the same compound, the GI50 [19] was 23000 nM (inactive), the GI50 [20] was 12900 nM (inactive) and the GI50 [21] was 17900 nM (inactive). The GI50 [22] was 30500 nM (inactive), the GI50 [23] was 9420 nM (inactive) and the GI50 [24] was 12600 nM (inactive). The GI50 [25] was 5780 nM (inactive), the GI50 [26] was 6950 nM (inactive) and the GI50 [27] was 13200 nM (inactive). The GI50 [28] was 17100 nM (inactive), the GI50 [29] was 20000 nM (inactive) and the GI50 [30] was 40700 nM (inactive). The GI50 [31] was 7530 nM (inactive), the GI50 [32] was 14200 nM (inactive) and the GI50 [33] was 5190 nM (inactive). The GI50 [34] was > 58700 nM (inactive), the GI50 [35] was 15500 nM (inactive) and the GI50 [36] was 20200 nM (inactive). For the same compound, the GI50 [37] was 7760 nM (inactive), the GI50 [38] was 5730 nM (inactive) and the GI50 [39] was 4290 nM. For the same compound, the GI50 [40] was 12900 nM (inactive), the GI50 [41] was 12500 nM (inactive) and the GI50 [42] was 13500 nM (inactive). The GI50 [43] was 10500 nM (inactive), the GI50 [44] was 21900 nM (inactive) and the GI50 [45] was 20000 nM (inactive). For the same compound, the GI50 [46] was 2200 nM (inactive), the GI50 [47] was 24800 nM (inactive) and the GI50 [48] was 21800 nM (inactive). The GI50 [49] was 17000 nM (inactive), the GI50 [50] was 15200 nM (inactive) and the GI50 [51] was 6750 nM (inactive). The GI50 [52] was 13900 nM (inactive), the GI50 [53] was 15700 nM (inactive) and the GI50 [54] was 8070 nM (inactive). For the same compound, the GI50 [55] was > 100000 nM (inactive), the GI50 [56] was 13600 nM (inactive) and the GI50 [57] was 39200 nM (inactive). The GI50 [58] was 18800 nM (inactive) and the GI50 [59] was 86900 nM (inactive).

In the case of `COC(=O)C1=C(C(=O)OC)SC2(S1)C(C(=O)OC)=C(C(=O)OC)Sc1c2ss/c1=N\c1ccc(Cl)cc1`, the GI50 [1] is reported as 774 nM (active), the GI50 [2] is reported as 1180 nM (inactive) and the GI50 [3] is reported as 2190 nM (inactive). The GI50 [4] was 336 nM (active), the GI50 [5] was 1530 nM (inactive) and the GI50 [6] was 948 nM (active). The GI50 [7] was 352 nM (active), the GI50 [8] was 1450 nM (inactive) and the GI50 [9] was 1830 nM (inactive). For the same compound, the GI50 [10] was 256 nM (active), the GI50 [11] was 1350 nM (inactive) and the GI50 [12] was 804 nM (active). For the same compound, the GI50 [13] was 333 nM (active), the GI50 [14] was 1400 nM (inactive) and the GI50 [15] was 1130 nM (inactive). For the same compound, the GI50 [16] was 1560 nM (inactive), the GI50 [17] was 1310 nM (inactive) and the GI50 [18] was 1140 nM (inactive). For the same compound, the GI50 [19] was 1450 nM (inactive), the GI50 [20] was 470 nM (active) and the GI50 [21] was 794 nM (active). For the same compound, the GI50 [22] was 525 nM (active), the GI50 [24] was 1910 nM (inactive) and the GI50 [25] was 1110 nM (active). The GI50 [26] was 197 nM (active), the GI50 [27] was 1700 nM (inactive) and the GI50 [28] was 516 nM (active). The GI50 [29] was 1390 nM (inactive), the GI50 [30] was 325 nM (active) and the GI50 [31] was 1320 nM (inactive). The GI50 [32] was 283 nM (active), the GI50 [33] was 1060 nM (active) and the GI50 [34] was 1670 nM (inactive). The GI50 [35] was 1830 nM (inactive), the GI50 [36] was 1070 nM (active) and the GI50 [37] was 638 nM (active). For the same compound, the GI50 [38] was 339 nM (active), the GI50 [39] was 318 nM and the GI50 [40] was 325 nM (active). For the same compound, the GI50 [41] was 425 nM (active), the GI50 [42] was 440 nM (active) and the GI50 [43] was 1390 nM (inactive). For the same compound, the GI50 [44] was 733 nM (active), the GI50 [45] was 510 nM (active) and the GI50 [46] was 277 nM (active). The GI50 [47] was 767 nM (active), the GI50 [48] was 1790 nM (inactive) and the GI50 [49] was 1840 nM (inactive). The GI50 [50] was 1100 nM (active), the GI50 [51] was 1430 nM (inactive) and the GI50 [52] was 2840 nM (inactive). The GI50 [53] was 552 nM (active), the GI50 [54] was 1190 nM (inactive) and the GI50 [55] was 1770 nM (inactive). The GI50 [56] was 1400 nM (inactive), the GI50 [57] was 479 nM (active) and the GI50 [58] was 1110 nM (active). For the same compound, the GI50 [59] was 2000 nM (inactive).
